Experiments:
Type in all cases: in vivo
NF-kB = NF-kB in PFC and HIPP of mice treated with Aβ icv, Western blotting (FIG. 10); details: after 7 days
Procedure: (§1) The Aβ1-42, obtained from Tocris (Bristol, UK), was dissolved in sterile double-distilled pyrogenic-free water, as vehicle, to obtain a final concentration 4 μM [Colaianna M et al. 2010]. Mice were anesthetized with a solution (0.85 in ml/kg, i.p.), containing ketamine (Sigma Aldrich, Milan, Italy, 100 mg/10 ml), xylazine (Sigma Aldrich, Milan, Italy, 100 mg/10 ml) and acepromazine (prequillant, ATI Azienda Terapeutica Veterinaria Srl, 10 mg/10 ml) dissolved in saline solution. […] At the time of dissection, the correct needle track was assessed. […]
(§2) The total amount of proteins was measured in homogenates by using Pierce BCA Assay (Thermo Fisher Scientific, Cleveland, OH, USA). […] After HRP-conjugated specific antibody incubation, ECL reagent (Bio-Rad Laboratories Inc., Segrate (MI), Italy) was added to the immune complex and chemiluminescence was detected by ChemiDoc MP system (Bio-Rad Laboratories Inc., Segrate (MI), Italy). Optical densities of the bands were measured using Image J software (http://rsb.info.nih.gov/ij/ accessed on 15 Mar. 2021) and normalized against bands relative to -actin (1:5,000, Abcam, Cambridge, UK).

intact mice = experiment: Behavioral tests on intact animals (open field, freezing)
Procedure: The trials were performed at the Department of Clinical and Experimental Medicine of the University of Foggia according to the following rationale. • 1. In the present mouse model of beta-amyloid toxicity, using validated tests in mice, we evaluated the behaviors: • a. antidepressant: Tail Suspension Test (TST); Forced Swimming Test (FST); Splash Test (ST) with latency time (sec) and self-care (sec) measurement. • b. antianxiety: Open Field Test with measurement of distance traveled (m), time spent in the wall (sec), time spent in the center (sec), center entries (n); Freezing Test (sec). • c. on memory, learning, coordination of motor skills, fear conditioning: Rotarod Test with measure of Latency to Fall, repeated after training to evaluate motor learning. • 2. We tested the protective effects with the following procedure: • a. individually: βCP, FE, βBA, DHA and HA4; • b. in association with pairs: βCP+HA4, FE+HA4, βBA+HA4, FE+βCP, βBA+FE, βBA+βCP. • c. in association, all four together: βCP+FE+βBA+HA4 • d. versus control (SHAM), • e. using the mouse model of an Aβ-induced depressive phenotype. • 3. These behavioral tests were integrated with serotonin, dopamine, noradrenaline and their metabolites prefrontal cortex and hippocampus measurement. • 4. Furthermore, we evaluated the cortical and hippocampal glutamate (GLU) levels in mice treated with AP and subsequently we tested the ability of βCP, FE, βBA and HA4, to modulate this neurochemical parameter.
βCP, FE e βBA (Merck, Cayman Chemical Company) was dissolved in sunflower oil, this vehicle was chosen in order to maintain a better tasting and higher density of the final solution thus reducing reflux through the digestive tract.
Ten μl of the solution (or vehicle alone) were administered sublingually to mice. Brain βCP, FE e βBA were quantified in a separate subset of mice at 5, 15 and 30 min after their administration.
Open Field Test. Mice were placed in an open field arena and allowed to explore for 30 min [Lama A et al. 2021]. After each trial, the arena floor was cleaned with 70% ethanol to avoid inter-assay bias. The movements of mice were video recorded and analyzed by ANY-maze tracking software (Ugo Basile-Varese, Gemonio, Italy). Locomotion was evaluated through total crossing measurements.

synaptophysin = experiment: Synaptophysin in PFC and HIPP of mice treated with Aβ icv, Western blotting (FIG. 11); details: after 7 days
Procedure: The βCP, FE, βBA and HA4 influence on prefrontal and hippocampal synaptic plasticity was evaluated using anti-PSD-95, anti-synaptophysin, anti-CaMKII antibodies.
as §1, §2

What does the source list for `C[C@H]1[C@H](C)CC[C@]2(C)CC[C@]3(C)C(=CC[C@@H]4[C@@]5(C)CC[C@@H](O)[C@](C)(C(=O)O)[C@@H]5CC[C@]43C)[C@H]12` [βBA, β-boswellic acid]?
NF-kB tissue concentration (NF-kB): progressive removal of the pro-inflammatory effect induced by Aβ; lowest dose showing antidepressant effects (intact mice; intact mice, preliminary experiments (unpublished observations)): 5 mg/kg; effect in behavioral tests, individually (intact mice; mouse, in vivo): antidepressant and anxiolytic effect; synaptophysin tissue concentration (synaptophysin): remove Ap-induced alterations
